From the supplement of paper PMC9663587 come the findings set out here.

Compound in the first assay: CC(=O)c1c(C)c2cnc(Nc3ccc(N4CCN(CCOCCOCCOCCNC(=O)COc5cccc6c5C(=O)N(C5CCC(=O)NC5=O)C6=O)CC4)cn3)nc2n(C2CCCC2)c1=O [BSJ-03-123]
Nature of the assay: GR value, 72 h; higher = faster growth (1 = untreated, <0 = killing).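 Also: breast cancer and non-malignant breast epithelial lines, nine half-log doses, viable cells counted by Hoechst and LIVE/DEAD dye imaging versus time-zero plates and DMSO controls.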 Particulars: 0.01 µM.
With HCC1937, the GR value came to 0.933 GR.
With HCC1954, the GR value stood at 0.812 GR.
HS578T: the GR value was determined as 0.883 GR.

Staying with this assay, now noted: 0.03162 µM.
Regarding HCC1419, the GR value was determined as 0.644 GR.
As to HCC1569, the GR value is 0.922 GR.
In the case of HCC1806, the GR value was found to be 0.963 GR.
The same measure, in the same setting: the value for HCC1937 was 1.05 GR; that for HCC1954 was 0.745 GR.
For HS578T, the GR value was 0.844 GR.

Staying with this assay, now noted: 0.1 µM.
Consider HCC1419, for which the GR value was found to be 0.643 GR.
Still for that read-out and setting: then HCC1569, with 1.08 GR; and HCC1806, with 0.902 GR.
With HCC1937, the GR value turned out to be 0.961 GR.
On the same count and under the same terms, the value for HCC1954 was 0.689 GR; that for HS578T was 0.79 GR.

Staying with this assay, now noted: 0.3162 µM.
In the case of HCC1419, the GR value was 0.527 GR.
Take HCC1569: the GR value came to 0.841 GR.
The same measure, in the same setting: then HCC1806, with 0.831 GR; and HCC1937, with 1.03 GR.
As for HCC1954, the GR value was determined as 0.746 GR.
On the same count and under the same terms, then HS578T, with 0.74 GR.

The same assay, now with this note: 1 µM.
Take HCC1419: the GR value came out at 0.432 GR.
As for HCC1569, the GR value worked out at 0.5 GR.
Same read-out and setting: then HCC1806, with 0.648 GR; and HCC1937, with 0.918 GR.
The same measure, in the same setting: then HCC1954, with 0.558 GR; and HS578T, with 0.626 GR.

The assay is the same for the next values; noted with them: 3.162 µM.
On to HCC1419, for which the GR value worked out at 0.443 GR.
Consider HCC1569, for which the GR value was 0.693 GR.
Still for that read-out and setting: the value for HCC1806 was 0.566 GR; that for HCC1937 was 0.977 GR; that for HCC1954 was 0.473 GR.
On the same count and under the same terms, the value for HS578T was 0.521 GR.

The assay is the same for the next values; noted with them: 10 µM.
As for HCC1419, the GR value turned out to be 0.165 GR.
The same measure, in the same setting: then HCC1569, with -0.102 GR; and HCC1806, with -0.0555 GR.
In the case of HCC1937, the GR value stood at 0.525 GR.
On to HCC1954, for which the GR value is -0.0177 GR.
Same read-out and setting: the value for HS578T was -0.29 GR.

Compound in another assay: CCN1CCN(Cc2ccc(Nc3ncc(F)c(-c4cc(F)c5nc(C)n(C(C)C)c5c4)n3)nc2)CC1
The assay is described as above. Particulars: 0.001 µM.
Regarding HCC1419, the GR value stood at 1.13 GR.
As to HCC1569, the GR value was 0.941 GR.
For the cell line HCC1806, the GR value was 0.986 GR.
In the case of HCC1937, the GR value stood at 1.03 GR.
Same read-out and setting: then HCC1954, with 1.01 GR; and HS578T, with 0.969 GR.

Still in this assay, the particulars now being: 0.003162 µM.
As to HCC1419, the GR value came to 0.823 GR.
Same read-out and setting: the value for HCC1569 was 0.932 GR.
HCC1806: the GR value is 0.943 GR.
For HCC1937, the GR value came out at 1.04 GR.
As for HCC1954, the GR value was found to be 0.941 GR.
Still for that read-out and setting: the value for HS578T was 0.776 GR.

Still in this assay, the particulars now being: 0.01 µM.
With HCC1419, the GR value stood at 0.714 GR.
The same measure, in the same setting: then HCC1569, with 0.955 GR; and HCC1806, with 0.894 GR; and HCC1937, with 1.06 GR.
For HCC1954, the GR value amounted to 0.844 GR.
Consider HS578T, for which the GR value was found to be 0.699 GR.

Staying with this assay, now noted: 0.03162 µM.
As to HCC1419, the GR value amounted to 0.548 GR.
Same read-out and setting: the value for HCC1569 was 1.05 GR; that for HCC1806 was 0.779 GR; that for HCC1937 was 1.08 GR.
In the case of HCC1954, the GR value was 0.698 GR.
As to HS578T, the GR value was determined as 0.521 GR.

The assay is the same for the next values; noted with them: 0.1 µM.
As for HCC1419, the GR value is 0.548 GR.
Turning to HCC1569, the GR value stood at 0.985 GR.
Same read-out and setting: the value for HCC1806 was 0.75 GR; that for HCC1937 was 0.973 GR; that for HCC1954 was 0.584 GR.
Same read-out and setting: then HS578T, with 0.442 GR.

The same assay, now with this note: 0.3162 µM.
As to HCC1419, the GR value came out at 0.415 GR.
Regarding HCC1569, the GR value was found to be 1.07 GR.
Same read-out and setting: the value for HCC1806 was 0.667 GR; that for HCC1937 was 0.941 GR.
As for HCC1954, the GR value worked out at 0.503 GR.
Regarding HS578T, the GR value was determined as 0.268 GR.

Still in this assay, the particulars now being: 1 µM.
Turning to HCC1419, the GR value was 0.487 GR.
HCC1569: the GR value stood at 0.822 GR.
Still for that read-out and setting: then HCC1806, with 0.447 GR.
The same measure, in the same setting: the value for HCC1937 was 0.81 GR; that for HCC1954 was 0.36 GR.
On the same count and under the same terms, the value for HS578T was 0.217 GR.

Still in this assay, the particulars now being: 3.162 µM.
HCC1419: the GR value came out at 0.303 GR.
HCC1569: the GR value came to 0.639 GR.
For the cell line HCC1806, the GR value worked out at 0.129 GR.
Same read-out and setting: then HCC1937, with 0.598 GR.
Same read-out and setting: then HCC1954, with 0.193 GR; and HS578T, with -0.238 GR.

Staying with this assay, now noted: 10 µM.
As for HCC1419, the GR value turned out to be 0.2 GR.
The same measure, in the same setting: then HCC1569, with 0.0637 GR.
For the cell line HCC1806, the GR value is -0.456 GR.
In the case of HCC1937, the GR value was 0.321 GR.
Still for that read-out and setting: the value for HCC1954 was -0.5 GR.
As for HS578T, the GR value is -0.576 GR.

Compound in another assay: CN(C)C/C=C/C(=O)Nc1ccc(C(=O)N2CCC[C@@H](Nc3ncc(Cl)c(-c4c[nH]c5ccccc45)n3)C2)cc1 [THZ531]
The description is as above. Particulars: 0.0001 µM.
As for HCC1419, the GR value came out at 0.969 GR.
For HCC1569, the GR value was found to be 1.2 GR.
Same read-out and setting: the value for HCC1806 was 0.976 GR; that for HCC1937 was 0.85 GR; that for HCC1954 was 1.04 GR.
As to HS578T, the GR value was found to be 1.04 GR.

Staying with this assay, now noted: 0.0003162 µM.
As to HCC1419, the GR value is 1.03 GR.
For HCC1569, the GR value turned out to be 1.02 GR.
Same read-out and setting: then HCC1806, with 0.999 GR; and HCC1937, with 1 GR; and HCC1954, with 1.06 GR.
Same read-out and setting: then HS578T, with 0.978 GR.

The same assay, now with this note: 0.001 µM.
Turning to HCC1419, the GR value was determined as 1.02 GR.
Consider HCC1569, for which the GR value was determined as 1.03 GR.
For HCC1806, the GR value is 1.04 GR.
In the case of HCC1937, the GR value turned out to be 0.958 GR.
For the cell line HCC1954, the GR value turned out to be 0.921 GR.
As for HS578T, the GR value is 1 GR.

Staying with this assay, now noted: 0.003162 µM.
As for HCC1419, the GR value turned out to be 0.993 GR.
As to HCC1569, the GR value was 1.15 GR.
On the same count and under the same terms, the value for HCC1806 was 1.01 GR; that for HCC1937 was 1.01 GR; that for HCC1954 was 1.04 GR.
Regarding HS578T, the GR value amounted to 1.03 GR.

Staying with this assay, now noted: 0.01 µM.
Take HCC1419: the GR value was determined as 1.18 GR.
As for HCC1569, the GR value was found to be 1.09 GR.
Consider HCC1806, for which the GR value turned out to be 1.07 GR.
The same measure, in the same setting: the value for HCC1937 was 1.09 GR; that for HCC1954 was 1.07 GR.
Same read-out and setting: the value for HS578T was 0.993 GR.
